Molecules are shown by their SMILES.

Experiment [1] deals with T1, Catechol O-methyltransferase (Rattus norvegicus, UniProt P22734).
T1 sequence (P22734 whole entry): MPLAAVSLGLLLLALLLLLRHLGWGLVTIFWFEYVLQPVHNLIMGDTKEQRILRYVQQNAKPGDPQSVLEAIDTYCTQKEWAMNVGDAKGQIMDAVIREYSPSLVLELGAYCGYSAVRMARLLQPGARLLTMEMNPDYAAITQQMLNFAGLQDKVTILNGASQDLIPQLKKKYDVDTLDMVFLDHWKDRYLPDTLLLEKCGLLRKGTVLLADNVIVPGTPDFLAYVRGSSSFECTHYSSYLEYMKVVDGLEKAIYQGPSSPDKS
The experiment in a line: Inhibitory activity against COMT in rat brain. The class given is tissue-based.

The target in experiment [2] is T1, Catechol O-methyltransferase. The experiment is described as follows: Inhibitory activity against COMT in rat liver.

The term IC50 denotes the midpoint of a concentration-inhibition curve. With `O=C(CCCc1ccccc1)c1ccc(O)c(O)c1[N+](=O)[O-]`, the IC50 in experiment [1] was determined as 4 nM; in experiment [2] it was 130 nM.
The like results for `O=C(CCc1ccccc1)c1ccc(O)c(O)c1[N+](=O)[O-]` were, in that order, 4 nM and 2000 nM.
On to `O=C(Cc1ccccc1)c1ccc(O)c(O)c1[N+](=O)[O-]`, for which the values for the IC50 in experiment [1] and in experiment [2] were 3 nM and 130 nM, respectively.
As for `O=C(CCCCc1ccccc1)c1ccc(O)c(O)c1[N+](=O)[O-]`, the IC50 in experiment [1] came to 4 nM; in experiment [2] it was 110 nM.

These data come from ChEMBL document CHEMBL1140432, “Synthesis and biological evaluation of a novel series of "ortho-nitrated" inhibitors of catechol-O-methyltransferase” (J Med Chem, 2005).
